{"source": "patent US20260219274A1", "about": "“POLYOL SWEETNERS AND CARDIOVASCULAR AND THROMBOTIC EVENT RISK” (THE CLEVELAND CLINIC FOUNDATION, priority 2023, published 2026)", "key": {"[1]": {"assay": "Xylitol intervention study: postprandial plasma xylitol levels and elimination", "type": "in vivo", "protocol": "A third xylitol intervention study (clinicaltrials.gov number: NCT04731363) included 10 prospectively recruited healthy volunteers (35±11 years of age, 50% male, nonsmokers without CVD, hypertension, or diabetes). Fasting (overnight) subjects were provided a standardized artificially sweetened beverage (300 mL) containing 30 g of xylitol dissolved in water with instructions to rapidly consume the drink (within 2 minutes). In the first part of xylitol ingestion studies, pharmacokinetics studies focused on post-prandial plasma levels and time course of elimination of xylitol. For LC-MS/MS analysis of xylitol, serial venous blood and urine sampling was performed at baseline, 30 min, 1 h, 4 h, 6 h and 24 h to establish postprandial peak levels and the time course of xylitol elimination in the first 4 subjects. After we noticed that xylitol levels were rapidly cleared with postprandial xylitol peak levels at 30 min after ingestion in all 4 subjects, we streamlined our protocol in the interest of being both practical and less demanding on subjects, and sampled blood and urine at baseline and after 30 min for the remainder of subjects.\nStable-isotope-dilution LC-MS/MS was developed to specifically quantify xylitol in human and mouse plasma, urine and feces (fecal pellets were dissolved in water and supernatant subjected to LC-MS/MS). Ice cold methanol (800 μL) and internal standard (^13C2-arabitol) were added to the plasma samples (20 μL) or urine (20 μL) previously diluted in MQ water, followed by vortexing and centrifuging (21,000×g; 4° C. for 15 min). The clear supernatant (800 μL) was transferred into a clean, labeled glass tubes (Borosilicate glass 12×75 mm) and dried in a speed vacuum concentrator (Speed vac plus, SC210, Thermo Sevant). Acetylation was used since xylitol is poorly ionizable in order to achieve better retention on the reverse phase column and separation from other structural isomers as well as better ionization to achieve better sensitivity. The dry residue was reconstituted in acetic anhydride (100 μL) and 4-Dimethylaminopyridine (DMAP) in pyridine (100 μl; 1 mg/mL), sealed with safety caps, vortexed and heated (45 min at 80° C.) followed with drying under nitrogen. Dried residues were dissolved in HCl in water (0.1 M; 0.5 mL) and extracted with ethylacetate (2.0 mL). Ethylacetate layer was transferred into a clean glass tube (Borosilicate glass 12×75 mm) and dried under nitrogen. The dry residue was reconstituted in ammonium formate in a mixture of methanol:water (100 μL; 50:50 v/v with 10 mM ammonium formate), tubes were vortexed and liquid was transferred to glass vials with micro-insets and caped. LC-MS/MS analysis was performed on a chromatographic system consisting of two Shimadzu LC-30 AD pumps (Nexcra X2), a CTO 20AC oven operating at 30° C., and a SIL-30 AC-MP autosampler in tandem with a triple quadruple mass spectrometer (8050 series, Shimadzu Scientific Instruments, Inc., Columbia, MD, USA). For chromatographic separation, a Kinetex C18 column (50 mm×2.1 mm; 2.6 μm) (Cat #00B-4462-AN, Phenomenex, Torrance, CA) was used. […] Electrospray ionization in the positive mode was used with multiple reaction monitoring (MRM) for detection of endogenous and stable isotope labeled internal standards. The following transitions were used: m/z 380 [M^+NH4]^+ […] for xylitol, arabitol and ribitol and m/z 382 [M+NH4]^+→305 for [^13C2]-arabitol. The following ion source parameters were applied: nebulizing gas flow, 3 L/min; heating gas flow, 10 L/min; interface temperature, 300° C.; desolvation line temperature, 250° C.; heat block temperature, 400° C.; and drying gas flow, 10 L/min. Accuracy and precision of the method to quantify xylitol (separated from its structural isomers arabitol and ribitol) were assessed by a standard addition method of pure synthetic standard into different plasma pools. […]"}, "human whole blood": {"system": "human whole blood", "assay": "Imaging flow cytometry of platelet-leukocyte aggregates in whole blood", "type": "cell-based", "conditions": "pre-incubation with physiological levels of xylitol, TRAP6 7.5 μM", "protocol": "Imaging flow cytometry was performed on an Amnis ImageStreamX MK II two-camera system using anti-CD45 AF488, anti-CD41 AF647 and anti-CD62P-PE. Details and the gating strategy are described in supplemental methods.\nWhole blood collected from consented healthy volunteers was incubated with xylitol (30 or 100 μM) or vehicle for 30 min. Where indicated, the samples were then stimulated with 7.5 μM TRAP6 for 10 min. Blood samples were then incubated with anti-CD45 AF488 (Catalogue #FAB1430G, R&D Systems, MN, USA), anti-CD41 AF647 (Catalogue #303726, Biolegend, San Diego, CA, USA) and anti-CD62P-PE (Catalogue #555524, BD PharMingen, San Diego, CA, USA) for 20 min at room temperature in the dark. After gentle red blood cell lysis using VersaLyse Lysing solution (Catalogue #A09777, Beckman Coulter, Brea, California, USA), cells were gently spun down and resuspended in HBSS-BSA. Platelet leucocyte aggregates were measured on an Amnis ImageStreanX MK II two-camera system (Luminex, Austin, TX, USA). Data were analyzed using Amnis IDEAS software (Luminex, Austin, TX, USA).\nIDEAS analysis was performed as follows. Gating out of focus events using Gradient RMS in the brightfield image. Gating on CD45+ events using the Intensity and Max Pixel features. Elimination of false positive CD45 events and selection of only true CD45+ cells using Intensity vs. Area of CD45+. […]"}}, "data": [{"smiles": "OC[C@@H](O)[C@H](O)[C@@H](O)CO", "note": "[xylitol]", "values": [{"measurement": "concentration at 30 min", "setting": "[1]; both sexes, human, plasma, oral, 30 min following ingestion of 30 g xylitol, read-out: plasma levels of xylitol, median [IQR]", "value": 312000, "unit": "nM"}, {"measurement": "concentration at 4 h", "setting": "[1]; both sexes, human, plasma, oral, 4 h after 30 g xylitol, read-out: plasma xylitol levels, median [IQR]", "value": 1870, "unit": "nM"}, {"measurement": "concentration at 6 h", "setting": "[1]; both sexes, human, plasma, oral, 6 h after 30 g xylitol, read-out: plasma xylitol levels, median [IQR]", "value": 670, "unit": "nM"}, {"measurement": "half-life", "setting": "[1]; both sexes, human, plasma, 30 g xylitol oral", "value": 12.6, "unit": "min"}, {"measurement": "time of postprandial xylitol peak levels", "setting": "[1]; first 4 subjects", "value": 30, "unit": "min"}, {"measurement": "time to return of postprandial plasma levels to near baseline", "setting": "[1]; healthy volunteers", "value": "≤ 6", "unit": "h"}, {"measurement": "oral absorption in humans", "setting": "[1]; oral ingestion", "value": "readily absorbed"}, {"measurement": "TRAP6 stimulated platelet-leukocyte aggregates", "setting": "human whole blood", "value": "dose-dependent increase"}]}]}
